Assay results published in US8202893B2, “Cannabinergic lipid ligands” (University of Connecticut, priority 2004, dated 2012).
pKi: −log10 of the molar value. Read-outs that look alike come from different tables or passages of the source.

Assays:
[1] = target: T1, CB1 cannabinoid receptor (Rattus norvegicus, UniProt P20272); test: CB1 receptor binding, [3H]CP-55,940 displacement; settings: rat forebrain membranes
T1 construct: membranes were prepared from rat forebrain membranes; from tissue; host or cells: rat forebrain
Description: Some inventive analogs were tested for CB2 receptor binding affinity and for CB1 receptor affinity (to determine selectivity). […] The lower the Ki value, the higher the binding affinity. […] For the CB1 receptor binding studies, membranes were prepared from rat forebrain membranes according to the procedure of P. R. Dodd et al, A Rapid Method for Preparing Synaptosomes: Comparison with Alternative Procedures, Brain Res., 107-118 (1981). The binding of the novel analogues to the CB1 cannabinoid receptor was assessed as described in W. A. Devane et al, Determination and Characterization of a Cannabinoid Receptor in a Rat Brain, Mol. Pharmacol., 34, 605-613 (1988) and A. Charalambous et al, 5′-azido Δ^8-THC: A Novel Photoaffinity Label for the Cannabinoid Receptor, J. Med. Chem., 35, 3076-3079 (1992) with the following changes. The above articles are incorporated by reference herein.
Membranes, previously frozen at −80° C., were thawed on ice. To the stirred suspension was added three volumes of TME (25 mM Tris-HCl buffer, 5 mM MgCl2 and 1 mM EDTA) at a pH 7.4. The suspension was incubated at 4° C. for 30 min. At the end of the incubation, the membranes were pelleted and washed three times with TME.
(§1) The treated membranes were subsequently used in the binding assay described below. Approximately 30 μg of membranes were incubated in silanized 96-well microtiter plate with TME containing 0.1% essentially fatty acid-free bovine serum albumin (BSA), 0.8 nM [^3H] CP-55,940, and various concentrations of test materials in a final volume of 200 μL. The assays were incubated for 1 hour at 30° C. and then immediately filtered using Packard Filtermate 196 harvester and Whatman GF/C filterplates and washed with wash buffer (TME) containing 0.5% BSA. Radioactivity was detected using MicroScint 20 scintillation cocktail added directly to the dried filterplates, and the filterplates were counted using a Packard Instruments Top-Count. Nonspecific binding was assessed using 100 nM CP-55,940. Data collected from three independent experiments performed with duplicate determinations was normalized between 100% and 0% specific binding for [^3H] CP-55,940, determined using buffer and 100 nM CP-55,940. The normalized data was analyzed using a 4-parameter nonlinear logistic equation to yield IC50 values.

[2] = target: T2, CB2 receptor (Mus musculus, UniProt P47936); test: CB2 receptor binding, [3H]CP-55,940 displacement; settings: mouse spleen membranes
T2 construct: membranes were prepared from frozen mouse spleen; from tissue; host or cells: mouse spleen
Description: as §1
For the CB2 receptor binding studies, membranes were prepared from frozen mouse spleen essentially according to the procedure of P. R. Dodd et al, A Rapid Method for Preparing Synaptosomes: Comparison with Alternative Procedures, Brain Res., 226, 107-118 (1981) which is incorporated by reference herein. Silanized centrifuge tubes were used throughout to minimize receptor loss due to adsorption. The CB2 binding assay was conducted in the same manner as for the CB1 binding assay. The binding affinities (Ki) were also expressed in nanomoles (nM).

[3] = target: T3, FAAH (fatty acid amide hydrolase) (Rattus norvegicus, UniProt P97612); test: FAAH screening: inhibition of anandamide metabolism to arachidonic acid; format: biochemical; settings: 25 nmoles compound with 25 nmoles AEA, 75 μg enzyme, 250 μL, 15 min
T3 construct: Anandamide Amidase Activity in Rat Brain Microsomes; from tissue; host or cells: rat brain microsomes (by the cited procedure)
T3 sequence (P97612 1-579): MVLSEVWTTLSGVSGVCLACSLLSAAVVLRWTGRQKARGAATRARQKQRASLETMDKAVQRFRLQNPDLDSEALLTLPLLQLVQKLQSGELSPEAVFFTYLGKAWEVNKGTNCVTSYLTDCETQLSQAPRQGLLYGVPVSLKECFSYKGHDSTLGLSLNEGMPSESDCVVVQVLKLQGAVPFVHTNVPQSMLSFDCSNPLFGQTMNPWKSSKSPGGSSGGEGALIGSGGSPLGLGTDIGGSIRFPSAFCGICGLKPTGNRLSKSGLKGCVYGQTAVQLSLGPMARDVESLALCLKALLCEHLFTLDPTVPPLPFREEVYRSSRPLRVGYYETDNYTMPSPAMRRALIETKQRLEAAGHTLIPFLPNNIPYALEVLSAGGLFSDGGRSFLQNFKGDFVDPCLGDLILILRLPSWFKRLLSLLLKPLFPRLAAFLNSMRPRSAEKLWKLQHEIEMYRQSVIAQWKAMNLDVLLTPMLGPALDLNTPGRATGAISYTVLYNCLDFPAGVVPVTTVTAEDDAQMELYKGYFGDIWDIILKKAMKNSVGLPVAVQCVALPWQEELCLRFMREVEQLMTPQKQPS
Description: The FAAH (fatty acid amide hydrolase) enzyme preparation was obtained according to the procedure of Lang and Makriyannis et al High Performance Liquid Chromatographic Determination of Anandamide Amidase Activity in Rat Brain Microsomes, Analytical Biochemistry (238): 40-45, 1996.
All compound solutions were made to a concentration of 10 mM in DMSO. Three tests were performed on each compound: hydrolysis, to determine the stability of the compound in assay conditions without the enzyme present; metabolism, to determine the stability of the compound with the enzyme present; and inhibition of anandamide (native substrate) metabolism to arachidonic acid.
Again the reaction mixture was treated in the same manner as described above and the concentrations of AEA and AA were calculated using external standards. Percent inhibition was calculated using the following equation: % Inhib.=(AA15-AA0)i/(AA15-AA0)s where (AA15-AA0)c is the amount of arachidonic acid formed over 15 minutes from AEA with the inhibitor present and (AA15-AA0)s is the amount of arachidonic acid formed over 15 minutes from AEA when the inhibitor is not present. […] The reaction mixtures were treated as described above and the amount of AA formed was calculated. The software package GraphPad Prism was utilized to calculate IC50 and Ki. HPLC Conditions:
Chromatographic separation was achieved using an Ultrasphere ODS Pre-column (4.6×45 mm) from Beckman. Hardware consisted of a Waters Millennium HPLC system with a 20 μL injection loop. The mobile phase consisted of 8.5% o-phosphoric acid:acetonitrile (3:7), run isocratically at a rate of 1 mL/min and detection at 204 nm. The total run time was 8 minutes with AEA eluting at 2.2 minutes and AA at 6.0 minutes.

[4] = with PMSF (second value of cell), read-out: Ki CB1 (nM) (o/w PMSFQ)
[5] = without PMSF (first value of cell), read-out: Ki CB1 (nM) (o/w PMSFQ)
[6] = with PMSF (second value of cell), read-out: Ki CB1 (nM) (o/w PMSF)
[7] = without PMSF (first value of cell), read-out: Ki CB1 (nM) (o/w PMSF)

T2 sequence (P47936 whole entry): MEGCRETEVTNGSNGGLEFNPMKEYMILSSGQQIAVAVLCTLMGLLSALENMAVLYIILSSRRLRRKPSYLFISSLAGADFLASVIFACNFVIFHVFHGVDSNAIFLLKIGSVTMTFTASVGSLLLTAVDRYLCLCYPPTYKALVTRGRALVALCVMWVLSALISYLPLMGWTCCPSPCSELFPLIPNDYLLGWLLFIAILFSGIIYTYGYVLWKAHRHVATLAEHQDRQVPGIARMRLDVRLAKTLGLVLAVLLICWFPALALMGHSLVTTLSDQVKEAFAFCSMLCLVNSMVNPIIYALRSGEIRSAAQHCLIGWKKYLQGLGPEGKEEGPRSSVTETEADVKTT
T1 sequence (P20272 whole entry): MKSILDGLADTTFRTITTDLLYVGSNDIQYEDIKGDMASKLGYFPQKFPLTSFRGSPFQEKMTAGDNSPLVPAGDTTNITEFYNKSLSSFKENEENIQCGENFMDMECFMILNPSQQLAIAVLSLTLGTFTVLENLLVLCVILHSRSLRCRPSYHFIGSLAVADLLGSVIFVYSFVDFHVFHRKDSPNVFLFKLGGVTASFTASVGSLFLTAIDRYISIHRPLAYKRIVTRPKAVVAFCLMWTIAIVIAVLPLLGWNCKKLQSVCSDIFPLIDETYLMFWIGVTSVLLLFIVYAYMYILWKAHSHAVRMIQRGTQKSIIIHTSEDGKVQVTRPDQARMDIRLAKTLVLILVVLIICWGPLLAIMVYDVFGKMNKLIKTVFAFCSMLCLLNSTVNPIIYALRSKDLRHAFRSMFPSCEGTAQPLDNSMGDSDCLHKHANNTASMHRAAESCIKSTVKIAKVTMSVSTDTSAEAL

SMILES	Ki [1, 4]	Ki [1, 5]	pKi [2]	FAAH % Inhibition [3]	Ki [1, 6]	Ki [1, 7]
O=C(CCC/C=C\C/C=C\C/C=C\C/C=C\CCCCc1ccccc1)NCC1CC1 [Compound A1]	153 nM	94.6 nM	6.75	23%	–	–
O=C(CCC/C=C\C/C=C\C/C=C\C/C=C\CCc1ccccc1)NCC1CC1 [Compound A2]	129 nM	729 nM	6.77	32%	–	–
O=C(CCC/C=C\C/C=C\C/C=C\C/C=C\CCc1ccccc1)Nc1ccc(O)cc1 [Compound A3]	58.6 nM	183 nM	7.08	34%	–	–
O=C(CCC/C=C\C/C=C\C/C=C\C/C=C\CCc1ccccc1)Nc1nccs1 [Compound A4]	84.3 nM	1180 nM	5.91	58%	–	–
[N-]=[N+]=NCCCC/C=C\C/C=C\C/C=C\C/C=C\CCCC(=O)NCC1CC1 [Compound A6]	114 nM	195 nM	6.37	11%	–	–
COc1cc(CNC(=O)CCC/C=C\C/C=C\C/C=C\C/C=C\CCCCN=[N+]=[N-])ccc1O [Compound A7]	80.5 nM	165 nM	6.52	46%	–	–
COc1cc(CNC(=O)CCC/C=C\C/C=C\C/C=C\C/C=C\CCCCN=C=S)ccc1O [Compound A12]	136 nM	193 nM	6.26	39%	–	–
O=C(CCC/C=C\C/C=C\C/C=C\C/C=C\CCCCCBr)NC1CC1 [Compound A18]	0.16 nM	25.1 nM	7.91	72%	–	–
CCCCCC=CCC=CCC=CCC=CCCCCOC(=O)NCC(C)O (stereo not drawn) [Compound B3]	–	–	6.22	10%	396 nM	526 nM
CCCCC/C=C\C/C=C\C/C=C\C/C=C\CCCCNC(=O)NC[C@H](C)O [Compound B12]	–	–	6.62	17.2%	126 nM	380 nM
CCCCC/C=C\C/C=C\CCCCCCCCOC(=O)NC[C@H](C)O [Compound B14]	–	–	5.65	1.20%	405 nM	1350 nM
CC/C=C\C/C=C\C/C=C\CCCCCCCCOC(=O)NC[C@H](C)O [Compound B15]	–	–	6.38	6.96%	481 nM	622 nM
